Measurements reported in publication PMC11392244, “Characterization of a unique catechol-O-methyltransferase as a molecular drug target in parasitic filarial nematodes” (PLOS Neglected Tropical Diseases, 2024).
“And” between values parts separate entries of the source, which are not always exact repeats. Equal values may be shown once. Read-outs that look alike come from different tables or passages of the source.

How the values were obtained:
[1] = system: DiMT protein; type: biochemical, Dirofilaria immitis
[2] = system: D. immitis microfilariae; assay: In vitro efficacy against live D. immitis microfilariae (motility, completely immotile %); type: cell-based, Dirofilaria immitis; conditions: for Completely Immotile Microfilariae (%): single replicate

Q: Which results are given for CO[C@H]1/C=C/O[C@@]2(C)Oc3c(C)c(O)c4c(O)c(cc(O)c4c3C2=O)NC(=O)/C(C)=C\C=C\[C@H](C)[C@H](O)[C@@H](C)[C@@H](O)[C@@H](C)[C@H](OC(C)=O)[C@@H]1C [NSC133100]?
A: Mean Percent Inhibition ([1]; 100 µM): 24.8% and 27.0% and 28.5%; Mean Percent Inhibition, Average ([1]; 100 µM): 26.8%; Mean Percent Inhibition ([1]; 200 µM): 32.0% and 34.7% and 35.8%; Mean Percent Inhibition, Average ([1]; 200 µM): 34.1%; Mean Percent Inhibition ([1]; 300 µM): 33.9% and 41.0% and 42.1%; Mean Percent Inhibition, Average ([1]; 300 µM): 39.0%; Mean Percent Inhibition ([1]; 400 µM): 40.4% and 46.0%; Mean Percent Inhibition, Average ([1]; 400 µM): 44.1%; Mean Percent Inhibition ([1]; 500 µM): 51.5% and 54.8% and 55.7%; Mean Percent Inhibition, Average ([1]; 500 µM): 54.0%; IC50 ([1]; read-out: IC 50 (μM ± SEM)): 496.9 ± 2.7 µM; Mean completely Immotile (%) ([2]; 15 µM, 0 h): 0%; Completely Immotile Microfilariae (%) ([2]; 15 µM, 0 h): 0%; Mean completely Immotile (%) ([2]; 15 µM, 24 h): 1%; Completely Immotile Microfilariae (%) ([2]; 15 µM, 24 h): 0% and 1% and 2%; Mean completely Immotile (%) ([2]; 15 µM, 48 h): 2.67%; Completely Immotile Microfilariae (%) ([2]; 15 µM, 48 h): 1% and 3% and 4%; Mean completely Immotile (%) ([2]; 15 µM, 72 h): 4.67%; Completely Immotile Microfilariae (%) ([2]; 15 µM, 72 h): 3% and 5% and 6%; Mean completely Immotile (%) ([2]; 15 µM, 96 h): 6.67%; Completely Immotile Microfilariae (%) ([2]; 15 µM, 96 h): 5% and 7% and 8%; Mean completely Immotile (%) ([2]; 15 µM, 120 h): 9.67%; Completely Immotile Microfilariae (%) ([2]; 15 µM, 120 h): 7% and 10% and 12%; Mean completely Immotile (%) ([2]; 25 µM, 0 h): 0%; Completely Immotile Microfilariae (%) ([2]; 25 µM, 0 h): 0%; Mean completely Immotile (%) ([2]; 25 µM, 24 h): 3%; Completely Immotile Microfilariae (%) ([2]; 25 µM, 24 h): 2% and 3% and 4%; Mean completely Immotile (%) ([2]; 25 µM, 48 h): 4.67%; Completely Immotile Microfilariae (%) ([2]; 25 µM, 48 h): 3% and 5% and 6%; Mean completely Immotile (%) ([2]; 25 µM, 72 h): 6.67%; Completely Immotile Microfilariae (%) ([2]; 25 µM, 72 h): 5% and 7% and 8%; Mean completely Immotile (%) ([2]; 25 µM, 96 h): 9.33%; Completely Immotile Microfilariae (%) ([2]; 25 µM, 96 h): 7% and 10% and 11%; Mean completely Immotile (%) ([2]; 25 µM, 120 h): 13.67%; Completely Immotile Microfilariae (%) ([2]; 25 µM, 120 h): 10% and 16% and 15%; Mean completely Immotile (%) ([2]; 50 µM, 0 h): 0%; Completely Immotile Microfilariae (%) ([2]; 50 µM, 0 h): 0%; Mean completely Immotile (%) ([2]; 50 µM, 24 h): 5%; Completely Immotile Microfilariae (%) ([2]; 50 µM, 24 h): 4% and 5% and 6%; Mean completely Immotile (%) ([2]; 50 µM, 48 h): 8%; Completely Immotile Microfilariae (%) ([2]; 50 µM, 48 h): 7% and 8% and 9%; Mean completely Immotile (%) ([2]; 50 µM, 72 h): 10.67%; Completely Immotile Microfilariae (%) ([2]; 50 µM, 72 h): 9% and 11% and 12%; Mean completely Immotile (%) ([2]; 50 µM, 96 h): 12.67%; Completely Immotile Microfilariae (%) ([2]; 50 µM, 96 h): 11% and 13% and 14%; Mean completely Immotile (%) ([2]; 50 µM, 120 h): 17%; Completely Immotile Microfilariae (%) ([2]; 50 µM, 120 h): 14% and 19% and 18%; Mean completely Immotile (%) ([2]; 75 µM, 0 h): 0%; Completely Immotile Microfilariae (%) ([2]; 75 µM, 0 h): 0%; Mean completely Immotile (%) ([2]; 75 µM, 24 h): 6.33%; Completely Immotile Microfilariae (%) ([2]; 75 µM, 24 h): 5% and 6% and 8%; Mean completely Immotile (%) ([2]; 75 µM, 48 h): 10%; Completely Immotile Microfilariae (%) ([2]; 75 µM, 48 h): 9% and 10% and 11%; Mean completely Immotile (%) ([2]; 75 µM, 72 h): 13%; Completely Immotile Microfilariae (%) ([2]; 75 µM, 72 h): 12% and 13% and 14%; Mean completely Immotile (%) ([2]; 75 µM, 96 h): 15.67%; Completely Immotile Microfilariae (%) ([2]; 75 µM, 96 h): 14% and 16% and 17%; Mean completely Immotile (%) ([2]; 75 µM, 120 h): 20.67%; Completely Immotile Microfilariae (%) ([2]; 75 µM, 120 h): 17% and 23% and 22%; effect on microfilariae ([2]; up to 120 h of culture): insignificant effect

Q: For CO[C@@H]1[C@@H](OC(=O)c2ccc(C)[nH]2)[C@@H](O)[C@H](Oc2ccc3c(O)c(NC(=O)c4ccc(O)c(CC=C(C)C)c4)c(=O)oc3c2Cl)OC1(C)C [NSC227186], which “Mean Percent Inhibition” value ([1]; 10 µM) is on record?
A: Its value is 25.0% and 23.9% and 30.2%.

Q: And the “Mean Percent Inhibition, Average” value ([1]; 10 µM)?
A: Its value is 26.4%.

Q: And the “Mean Percent Inhibition” value ([1]; 40 µM)?
A: Its value is 40.1% and 37.1% and 38.3%.

Q: What about the “Mean Percent Inhibition, Average” value ([1]; 40 µM) of the same compound?
A: The value was 38.5%.

Q: What about the “Mean Percent Inhibition” value ([1]; 70 µM) of the same compound?
A: The value was 40.5% and 43.1% and 39.6%.

Q: What about the “Mean Percent Inhibition, Average” value ([1]; 70 µM) of the same compound?
A: The value was 41.1%.

Q: What about the “Mean Percent Inhibition” value ([1]; 100 µM) of the same compound?
A: Its value is 44.8% and 43.5% and 45.8%.

Q: What about the “Mean Percent Inhibition, Average” value ([1]; 100 µM) of the same compound?
A: Its value is 44.7%.

Q: And the “Mean Percent Inhibition” value ([1]; 130 µM)?
A: Its value is 46.6% and 49.3% and 48.1%.

Q: And the “Mean Percent Inhibition, Average” value ([1]; 130 µM)?
A: The value was 48.0%.

Q: And the “Mean Percent Inhibition” value ([1]; 160 µM)?
A: The value was 50.6% and 48.4% and 57.2%.

Q: And the “Mean Percent Inhibition, Average” value ([1]; 160 µM)?
A: The value was 52.0%.
